For the assay, the target named is Acetylcholinesterase (Electrophorus electricus, UniProt O42275).

The structures appear in SMILES notation.

Chain of Acetylcholinesterase (O42275 whole entry): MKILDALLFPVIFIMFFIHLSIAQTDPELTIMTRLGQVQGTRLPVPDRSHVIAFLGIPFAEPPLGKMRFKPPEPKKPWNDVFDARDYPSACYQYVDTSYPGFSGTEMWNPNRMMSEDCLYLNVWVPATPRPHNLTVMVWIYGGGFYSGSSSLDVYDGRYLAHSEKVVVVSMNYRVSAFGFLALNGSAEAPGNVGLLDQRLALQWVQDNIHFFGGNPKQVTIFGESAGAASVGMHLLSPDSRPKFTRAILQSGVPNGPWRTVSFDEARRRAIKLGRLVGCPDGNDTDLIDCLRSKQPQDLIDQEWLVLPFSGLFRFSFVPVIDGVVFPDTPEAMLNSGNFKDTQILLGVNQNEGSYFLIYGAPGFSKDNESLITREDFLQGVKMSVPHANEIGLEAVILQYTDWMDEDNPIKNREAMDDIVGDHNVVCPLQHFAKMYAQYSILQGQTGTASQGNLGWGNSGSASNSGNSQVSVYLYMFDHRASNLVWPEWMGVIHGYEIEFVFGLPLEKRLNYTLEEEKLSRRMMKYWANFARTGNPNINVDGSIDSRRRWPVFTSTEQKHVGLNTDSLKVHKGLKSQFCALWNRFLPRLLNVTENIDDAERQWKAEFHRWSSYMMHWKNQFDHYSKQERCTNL
Description: In vitro inhibitory activity against acetylcholinesterase from electric eel

For orientation: IC50 means the concentration needed to halve the response being measured. Low values mean greater potency in that assay, high ones weaker potency in that assay. In the case of `CNC(=O)Oc1ccc2c(c1)[C@]1(C)CCN(C(=O)NC)C1N2C` (some centres not stated), the IC50 is 9.3 µM.
Take `CN(C)C(=O)Oc1cccc([N+](C)(C)C)c1` [NEOSTIGMINE BROMIDE]: the IC50 amounted to 0.087 µM.
